Assays:
tumor cells = assay: ion fluxes (Ca^2+, K^+, Na^+) quantified by fluorometry; format: cell-based; conditions: for fluxes of Ca^2+, K^+ and Na^+: FIG. 1B
Procedure: FIG. 1. […] (A, upper panels) Bright-field micrographs showing glass-adherent egg yolk vesicles before and after a 40-minute exposure to HAMLET, α-lactalbumin (HLA) or oleic acid (OA). Morphology was recorded by differential interference contrast microscopy. Scale bar […]. […] (A, lower panels) Effect of HAMLET on PMVs from lung carcinoma cells. PMVs on glass-bottom dishes were exposed to HAMLET, HLA or OA and stained with Nile red for confocal microscopy. […] As a control PMVs from healthy, differentiated cells on glass-bottom dishes were also exposed to HAMLET and stained with Nile red.
FIG. 7. Ion Fluxes. (A) Ion fluxes induced by HAMLET (35 μM) or it constituents (35 μM All-ala α-lactalbumin or 175 μM sodium oleate) were quantified by fluorometry, as described. […] (B) The global transcriptional response to HAMLET was studied by microarray and the top 3000 genes by variance visualized in a Heatmap. […] Darker bands=high expression, lighter bands=low.
(§1) The FLUXOR™ potassium (K^+) channel assay was performed on the TECAN infinite F200 (Tecan Group, Switzerland), according to the manufacturer's instructions (Invitrogen). Briefly, this involved FLUXOR™ loading buffer (Hank's Balanced Saline Solution, (HBSS) buffered with 20 mM HEPES and pH adjusted to 7.4 with NaOH. POWERLOAD™ concentrate and water-soluble Probenecid were used respectively to enhance the dye solubility and retention, respectively. Media were removed from the cell plates manually, and 80 μL of loading buffer containing the FLUXOR™ dye mix was applied to each well. Once inside the cell, the nonfluorescent AM ester form of the FLUXOR™ dye is cleaved by endogenous esterases into a thallium-sensitive indicator. The dye was loaded for 60 minutes at room temperature and then removed with the supernatant. After washing with dye-free PBS buffer, a final volume of 80 μL assay buffer containing water-soluble probenecid was added. Cells received one of the following channel inhibitors: 3.3 μL per well of 30 mM amiloride, 3.0 μL of 32 mM BaCl2, 1.8 μL of 5.4 mM gadolinium, 3 μL 3.2 mM tetrandrine and 2.3 μL of 2.6 mM ruthenium red, and were then incubated at room temperature (23-25° C.) for 30 minutes to allow equilibration of the test compounds. Prior to injection, stimulation buffer was prepared from the chloride-free buffer and thallium reagents provided in the kit as well as HAMLET, to achieve a final added concentrations of 2 mM free Tl+ and 35 μM HAMLET after 1:5 dilution upon injection of the stimulus buffer onto cells that had been loaded with FLUXOR™ dye.

[1] = test system: A549 lung carcinoma cells; assay: global transcriptional response, whole genome arrays (Affymetrix); format: cell-based, human; conditions: Example 5, Affymetrix U219, adjusted p-value <0.05 and log 2-foldchange of 1
Procedure: For the microarray analysis with ion channel inhibitors, 200,000 A549 cells/well were allowed to adhere overnight on a 6-well plate. After 1 hour of HAMLET treatment, the cells were lysed and RNA was extracted using the RNeasy Mini Kit (QIAGEN). The samples were sent to AROS Applied Biotechnology (Århus, Denmark) for analysis. Data was preprocessed using RMA implemented in the free software packages “affy” as provided by R and Bioconductor (<www.r-project.org>). Differentially expressed genes were identified using empirically Bayes adjusted t-statistics and characterized using the Functional Annotation Clustering Tool in the Database for Annotation, Visualization and Integrated Discovery (DAVID), (Dennis et al., 2003 Genome Biology 4(5): P3) and Ingenuity Pathway Analysis (Ingenuity Systems). All microarray data were registered into NCBI's Gene Expression Omnibus (GEO) database (<www.ncbi.nlm.nih.gov/projects/geo>) with accession numbers GSE23772.
To understand the mechanisms of carcinoma cell death and the contribution of ion channel activation, the global transcriptional response to HAMLET was examined, using whole genome arrays. A549 lung carcinoma cells were exposed to HAMLET (21 μM) for one hour and cells pretreated with amiloride were compared to cells in medium alone. […] An unbiased global overview of transcription was obtained by performing a hierarchical clustering of the top 3000 genes by variance and was visualized in a heatmap (FIG. 2D and FIG. 13). Genes with empirical Bayes adjusted p-values <0.05 and log 2 fold changes >1 were considered differentially expressed and were functionally characterized using Database for Annotation, Visualization and Integrated Discovery, (Dennis et al., supra, 2003) and Ingenuity Pathway Analysis.
In total 12 RNA samples were generated (triplicate of control, oleic Acid, HAMLET, and oleate-treated) and hybridized to Affymetrix Whole Genome microarrays U219. […] For statistical analysis normalized data were linear model fitted and Empirical Bayesian analysis, coupled with p-value adjustment, performed.

[2] = test system: potassium channels in A549, lung carcinoma cell lines; assay: FLUXOR potassium (K^+) channel assay, Thallium (Tl^+) indicator; format: cell-based, human; conditions: HAMLET 35 μM; oleate 175 μM (5× the HAMLET concentration); peptides mixed with oleate and immediately added
Procedure: as §1
To distinguish Ca^2+ mobilization from intracellular stores from the influx of extracellular Ca^2+, EGTA was then added to the cell medium. […] K^+ fluxes across tumor cell membranes were subsequently quantified under the same experimental conditions, using the fluorophore FLUXOR™, which fluoresces after thallium has entered cells through K^+ channels.
Potassium channel activity was therefore measured in A549, lung carcinoma cell lines using an indicator, which emits fluorescence signal upon entering the cells via opened potassium channels, Thallium (Tl^+) indicator (FIG. 18).

[3] = 35 μM All-ala α-lactalbumin or 175 μM sodium oleate, FIG. 7A

| Molecule | fluxes of Ca^2+, K^+ and Na^+ (tumor cells) | potassium channel activity (fluorescence signal) [2] | also measured |
| --- | --- | --- | --- |
| CCCCCCCC/C=C\CCCCCCCC(=O)O [oleic acid, reference compound] | no effect |  | ion channel activating activity (tumor cells; at concentrations relevant for the HAMLET complex): did not show ion channel activating activity; number of differentially expressed genes [1]: two |
| Alpha 1: α-lactalbumin peptide, residue 1-40 (EQLTKCEVFRELKDLKGYGGVSLPEWVCTTFHTSGYDTQA; UniProt P00711 20-59, looked up, fragment) |  | did not open potassium channels |  |
| Alpha 2: α-lactalbumin peptide, residue 81-123 (LDDDLTDDIMCVKKILDKVGINYWLAHKALCSEKLDQWLCEKL; UniProt P00711 100-142, looked up, fragment) |  | did not open potassium channels |  |
| Beta: α-lactalbumin peptide, residue 41-80 (IVQNNDSTEYGLFQINNKIWCKDDQNPHSSNICNISCDKF; UniProt P00711 60-99, looked up, fragment) |  | did not open potassium channels |  |
| α-lactalbumin: native α-lactalbumin purified from human milk (protein, UniProt P00709 20-142, looked up) Alpha-lactalbumin: KQFTKCELSQLLKDIDGYGGIALPELICTMFHTSGYDTQAIVENNESTEYGLFQISNKLWCKSSQVPQSRNICDISCDKFLDDDITDDIMCAKKILDIKGIDYWLAHKALCTEKLEQWLCEKL | no effect |  |  |
| α-lactalbumin^all-ala mutant: partially unfolded α-lactalbumin with all cysteines mutated to alanine (SEQ ID NO: 1 / 2) (protein) chain 1: KQFTKAELSQLLKDIDGYGGIALPELIATMFHTSGYDTQAIVENNESTEYGLFQISNKLWAKSSQVPQSRNIADISADKFLDDDITDDIMAAKKILDIKGIDYWLAHKALATEKLEQWLAEKL chain 2: MKQFTKAELSQLLKDIDGYGGIALPELIATMFHTSGYDTQAIVENNESTEYGLFQISNKLWAKSSQVPQSRNIADISADKFLDDDITDDIMAAKKILDIKGIDYWLAHKALATEKLEQWLAEKL |  |  | K^+ fluxes (tumor cells; [3]): comparable to HAMLET; Na^+ or Ca^2+ fluxes (tumor cells; [3]): weaker |
